# Values of other authors, collected in article PMC10486429, “Investigations Using Albumin Binders to Modify the Tissue Distribution Profile of Radiopharmaceuticals Exemplified with Folate Radioconjugates” (Cancers, 2023).
# Read-outs that look alike come from different tables or passages of the source.
# What was measured:
# [1] = test system: KB tumor-bearing athymic nude mice; design: method as in earlier work; details: cited from earlier work
# [2] = design: method as in PMID 33063250; details: n-octanol/PBS pH 7.4; cited from earlier work
# [3] = n-octanol/PBS pH 7.4; cited from earlier work
structure (smiles),measurement,setting,value
CN1c2c(nc(N)[nH]c2=O)NCC1CNc1ccc(C(=O)NC(CCC(=O)NC(CCCCNC(=O)CN2CCN(CC(=O)[O-])CCN(CC(=O)[O-])CCN(CC(=O)[O-])CC2)C(=O)NC(CCCCNC(=O)CCCc2ccc(I)cc2)C(=O)O)C(=O)O)cc1.[177Lu+3] (stereo not drawn) [[^177Lu]Lu-6S-RedFol-1],"Blood, accumulated activity",[1]; 1 h p.i.,19 ± 2 % IA/g
same,"Bone, accumulated activity",[1]; 1 h p.i.,2.0 ± 0.2 % IA/g
same,"Intestines, accumulated activity",[1]; 1 h p.i.,1.8 ± 0.4 % IA/g
same,"KB tumor, accumulated activity",[1]; 1 h p.i.,14 ± 3 % IA/g
same,"Kidneys, accumulated activity",[1]; 1 h p.i.,18 ± 2 % IA/g
same,"Liver, accumulated activity",[1]; 1 h p.i.,2.6 ± 0.1 % IA/g
same,"Lung, accumulated activity",[1]; 1 h p.i.,8.5 ± 0.6 % IA/g
same,"Muscle, accumulated activity",[1]; 1 h p.i.,1.6 ± 0.2 % IA/g
same,"Salivary glands, accumulated activity",[1]; 1 h p.i.,4.0 ± 0.2 % IA/g
same,"Spleen, accumulated activity",[1]; 1 h p.i.,2.0 ± 0.2 % IA/g
same,"Stomach, accumulated activity",[1]; 1 h p.i.,1.5 ± 0.3 % IA/g
same,Tumor-to-blood ratio,[1]; 1 h p.i.,0.73 ± 0.12
same,Tumor-to-kidney ratio,[1]; 1 h p.i.,0.75 ± 0.09
same,Tumor-to-liver ratio,[1]; 1 h p.i.,5.3 ± 1.0
same,"Blood, accumulated activity",[1]; 4 h p.i.,15 ± 2 % IA/g
same,"Bone, accumulated activity",[1]; 4 h p.i.,1.7 ± 0.2 % IA/g
same,"Intestines, accumulated activity",[1]; 4 h p.i.,1.9 ± 0.1 % IA/g
same,"KB tumor, accumulated activity",[1]; 4 h p.i.,26 ± 1 % IA/g
same,"Kidneys, accumulated activity",[1]; 4 h p.i.,33 ± 2 % IA/g
same,"Liver, accumulated activity",[1]; 4 h p.i.,2.3 ± 0.2 % IA/g
same,"Lung, accumulated activity",[1]; 4 h p.i.,6.7 ± 0.6 % IA/g
same,"Muscle, accumulated activity",[1]; 4 h p.i.,1.3 ± 0.1 % IA/g
same,"Salivary glands, accumulated activity",[1]; 4 h p.i.,3.5 ± 0.4 % IA/g
same,"Spleen, accumulated activity",[1]; 4 h p.i.,1.9 ± 0.3 % IA/g
same,"Stomach, accumulated activity",[1]; 4 h p.i.,1.2 ± 0.2 % IA/g
same,Tumor-to-blood ratio,[1]; 4 h p.i.,1.7 ± 0.2
same,Tumor-to-kidney ratio,[1]; 4 h p.i.,0.79 ± 0.07
same,"Blood, accumulated activity",[1]; 24 h p.i.,3.8 ± 0.9 % IA/g
same,"Bone, accumulated activity",[1]; 24 h p.i.,0.53 ± 0.08 % IA/g
same,"Intestines, accumulated activity",[1]; 24 h p.i.,0.49 ± 0.04 % IA/g
same,"KB tumor, accumulated activity",[1]; 24 h p.i.,46 ± 3 % IA/g
same,"Kidneys, accumulated activity",[1]; 24 h p.i.,69 ± 7 % IA/g
same,"Liver, accumulated activity",[1]; 24 h p.i.,0.81 ± 0.22 % IA/g
same,"Lung, accumulated activity",[1]; 24 h p.i.,2.2 ± 0.4 % IA/g
same,"Muscle, accumulated activity",[1]; 24 h p.i.,0.47 ± 0.15 % IA/g
same,"Salivary glands, accumulated activity",[1]; 24 h p.i.,1.4 ± 0.2 % IA/g
same,"Spleen, accumulated activity",[1]; 24 h p.i.,1.1 ± 0.2 % IA/g
same,"Stomach, accumulated activity",[1]; 24 h p.i.,0.51 ± 0.14 % IA/g
same,Tumor-to-blood ratio,[1]; 24 h p.i.,13 ± 3
same,Tumor-to-kidney ratio,[1]; 24 h p.i.,0.67 ± 0.08
same,Tumor-to-liver ratio,[1]; 24 h p.i.,59 ± 13
same,logD Values,[2],−3.7 ± 0.1 ^4
O=C(O)CN1CCN(CC(=O)O)CCN(CC(=O)NCCC(=O)N[C@@H](CCCCNC(=O)CCCc2ccc(I)cc2)C(=O)O)CCN(CC(=O)O)CC1.[177Lu] [[^177Lu]Lu-DOTA-ALB-1],logD value,[3],−3.15 ± 0.04
"CN1c2c(nc(N)[nH]c2=O)NC[C@H]1CNc1ccc(C(=O)N[C@@H](CCC(=O)N[C@@H](CCCCNC(=O)CN2CCN(CC(=O)O)CCN(CC(=O)O)CCN(CC(=O)O)CC2)C(=O)N[C@@H](CCCCNC(=O)CCCc2ccc(I)cc2)C(=O)O)C(=O)O)cc1 [[^177Lu]Lu-6R-RedFol-1, metal not drawn]","Blood, accumulated activity",[1]; 1 h p.i.,23 ± 3 % IA/g
same,"Bone, accumulated activity",[1]; 1 h p.i.,2.1 ± 0.3 % IA/g
same,"Intestines, accumulated activity",[1]; 1 h p.i.,2.9 ± 0.3 % IA/g
same,"Kidneys, accumulated activity",[1]; 1 h p.i.,8.4 ± 0.8 % IA/g
same,"Liver, accumulated activity",[1]; 1 h p.i.,3.3 ± 0.3 % IA/g
same,"Lung, accumulated activity",[1]; 1 h p.i.,10 ± 1 % IA/g
same,"Muscle, accumulated activity",[1]; 1 h p.i.,1.6 ± 0.2 % IA/g
same,"Salivary glands, accumulated activity",[1]; 1 h p.i.,5.0 ± 0.3 % IA/g
same,"Spleen, accumulated activity",[1]; 1 h p.i.,2.6 ± 0.2 % IA/g
same,"Stomach, accumulated activity",[1]; 1 h p.i.,1.9 ± 0.4 % IA/g
same,Tumor-to-blood ratio,[1]; 1 h p.i.,0.46 ± 0.01
same,Tumor-to-kidney ratio,[1]; 1 h p.i.,1.3 ± 0.1
same,Tumor-to-liver ratio,[1]; 1 h p.i.,3.3 ± 0.2
same,"Blood, accumulated activity",[1]; 4 h p.i.,17 ± 1 % IA/g
same,"Bone, accumulated activity",[1]; 4 h p.i.,1.9 ± 0.2 % IA/g
same,"Intestines, accumulated activity",[1]; 4 h p.i.,2.6 ± 0.7 % IA/g
same,"KB tumor, accumulated activity",[1]; 4 h p.i.,20 ± 2 % IA/g
same,"Kidneys, accumulated activity",[1]; 4 h p.i.,12 ± 1 % IA/g
same,"Liver, accumulated activity",[1]; 4 h p.i.,3.0 ± 0.2 % IA/g
same,"Lung, accumulated activity",[1]; 4 h p.i.,7.9 ± 1.4 % IA/g
same,"Muscle, accumulated activity",[1]; 4 h p.i.,1.4 ± 0.1 % IA/g
same,"Salivary glands, accumulated activity",[1]; 4 h p.i.,5.7 ± 0.5 % IA/g
same,"Spleen, accumulated activity",[1]; 4 h p.i.,2.2 ± 0.2 % IA/g
same,"Stomach, accumulated activity",[1]; 4 h p.i.,1.9 ± 0.3 % IA/g
same,Tumor-to-blood ratio,[1]; 4 h p.i.,1.2 ± 0.1
same,Tumor-to-kidney ratio,[1]; 4 h p.i.,1.7 ± 0.1
same,Tumor-to-liver ratio,[1]; 4 h p.i.,6.9 ± 0.7
same,"Blood, accumulated activity",[1]; 24 h p.i.,5.4 ± 0.9 % IA/g
same,"Bone, accumulated activity",[1]; 24 h p.i.,0.91 ± 0.22 % IA/g
same,"Intestines, accumulated activity",[1]; 24 h p.i.,0.80 ± 0.09 % IA/g
same,"KB tumor, accumulated activity",[1]; 24 h p.i.,47 ± 4 % IA/g
same,"Kidneys, accumulated activity",[1]; 24 h p.i.,24 ± 4 % IA/g
same,"Liver, accumulated activity",[1]; 24 h p.i.,1.3 ± 0.2 % IA/g
same,"Lung, accumulated activity",[1]; 24 h p.i.,3.2 ± 0.6 % IA/g
same,"Muscle, accumulated activity",[1]; 24 h p.i.,0.82 ± 0.22 % IA/g
same,"Salivary glands, accumulated activity",[1]; 24 h p.i.,5.2 ± 1.0 % IA/g
same,"Spleen, accumulated activity",[1]; 24 h p.i.,1.7 ± 0.1 % IA/g
same,"Stomach, accumulated activity",[1]; 24 h p.i.,0.80 ± 0.11 % IA/g
same,Tumor-to-blood ratio,[1]; 24 h p.i.,8.8 ± 0.8
same,Tumor-to-kidney ratio,[1]; 24 h p.i.,2.0 ± 0.4
same,Tumor-to-liver ratio,[1]; 24 h p.i.,35 ± 4
same,logD Values,[2],−3.9 ± 0.2 ^4
